The text below walks through data of US8293781B2, “Indole derivatives having cPLA2 inhibiting activity and applications and production methods of the same” (Daiichi Sankyo Company, Limited, priority 2007, dated 2012).

Counter-ions that a name gives are not always drawn. Where only a bound is given, the exact number is not on record here.

For the experiment, the target named is T1, cPLA2 crudely purified from the cytoplasm fraction of U937 (Homo sapiens, UniProt P47712).
T1 construct: cPLA2 crudely purified from the cytoplasm fraction of U937; endogenous in cells; host or cells: U937 cells (cytoplasm fraction, crude purification)
T1 sequence (P47712 1-749): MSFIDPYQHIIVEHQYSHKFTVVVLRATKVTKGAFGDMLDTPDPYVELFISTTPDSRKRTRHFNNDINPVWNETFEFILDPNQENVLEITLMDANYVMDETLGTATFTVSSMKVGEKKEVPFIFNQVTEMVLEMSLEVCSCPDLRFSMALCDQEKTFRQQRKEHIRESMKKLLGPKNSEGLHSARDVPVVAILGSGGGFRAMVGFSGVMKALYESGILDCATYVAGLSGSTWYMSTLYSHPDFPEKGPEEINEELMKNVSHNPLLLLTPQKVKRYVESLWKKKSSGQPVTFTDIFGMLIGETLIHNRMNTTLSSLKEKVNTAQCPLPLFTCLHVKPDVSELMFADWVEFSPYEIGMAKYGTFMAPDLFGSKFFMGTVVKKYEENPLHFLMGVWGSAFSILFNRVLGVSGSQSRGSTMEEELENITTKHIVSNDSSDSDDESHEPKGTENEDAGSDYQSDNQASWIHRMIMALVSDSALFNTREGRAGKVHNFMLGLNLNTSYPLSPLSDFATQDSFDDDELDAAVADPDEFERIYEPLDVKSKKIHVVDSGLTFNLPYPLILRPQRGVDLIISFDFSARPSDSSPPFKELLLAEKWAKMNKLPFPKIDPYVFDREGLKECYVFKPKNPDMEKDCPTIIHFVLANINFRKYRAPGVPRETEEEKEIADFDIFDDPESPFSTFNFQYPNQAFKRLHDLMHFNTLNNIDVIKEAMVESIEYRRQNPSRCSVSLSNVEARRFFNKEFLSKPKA
The experiment is described as follows: Measurement of cPLA2 inhibitory activity (release of [14C]-arachidonic acid from phosphatidyl choline liposome). Format: biochemical. The following applies: cPLA2 from U937 cytoplasm fraction, [14C]arachidonyl-phosphatidyl choline liposome, 37° C., 60 minutes; read-out: cPLA2 inhibitory activity, 50% inhibiting concentration IC50. The procedure, abridged: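 The read-out is radioactivity from extracted [14C]-arachidonic acid, freed over 60 min at 37° C from liposomes of 14C-arachidonyl phosphatidylcholine (10 μM PC in the added solution). Buffer was 50 mM HEPES pH 7.5 with Ca2+, DTT, NaCl and BSA. IC50 was derived from inhibition relative to enzyme control minus no-enzyme control.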
As for `O=C(O)CCc1ccc2c(c1)c(CCc1ccccc1)cn2-c1ccc(OCCc2cccnc2)cc1` [Example 253, 3-{3-(2-phenylethyl)-1-[4-(2-pyridin-3-ylethoxy)phenyl]-1H-indol-5-yl}propanoic acid], the IC50 is 14 nM.
Then `O=C(O)CCc1ccc2c(c1)c(CCc1ccccc1)cn2-c1ccc(OCCc2ccncc2)cc1` [Example 255, 3-{3-(2-phenylethyl)-1-[4-(2-pyridin-4-ylethoxy)phenyl]-1H-indol-5-yl}propanoic acid], with 12 nM.
Then `O=C(O)CCc1ccc2c(c1)c(CCc1ccccc1)cn2-c1ccc(OCCCc2cccnc2)cc1` [Example 257, 3-{3-(2-phenylethyl)-1-[4-(3-pyridin-3-ylpropoxy)phenyl]-1H-indol-5-yl}propanoic acid], with 7 nM; and `O=C(O)CCc1ccc2c(c1)c(CCc1ccccc1)cn2-c1ccc(OCCCc2cccnc2)cc1` [Example 258, 3-{3-(2-phenylethyl)-1-[4-(3-pyridin-3-ylpropoxy)phenyl]-1H-indol-5-yl}propanoic acid hydrochloride], with 2 nM; and `O=C(O)CCc1ccc2c(c1)c(CCc1ccccc1)cn2-c1ccc(OCCCc2ccncc2)cc1` [Example 260, 3-{3-(2-phenylethyl)-1-[4-(3-pyridin-4-ylpropoxy)phenyl]-1H-indol-5-yl}propanoic acid], with 8 nM.
Then `O=C(O)/C=C/c1ccc2c(c1)c(CCc1ccccn1)cn2-c1ccccc1` [Example 263, (2E)-3-[1-phenyl-3-(2-pyridin-2-ylethyl)-1H-indol-5-yl]-2-propenoic acid], with 1440 nM; and `O=C(O)CCc1ccc2c(c1)c(CCc1ccccn1)cn2-c1ccccc1` [Example 264, 3-[1-phenyl-3-(2-pyridin-2-ylethyl)-1H-indol-5-yl]propanoic acid], with 338 nM; and `O=C(O)/C=C/c1ccc2c(c1)c(CCc1ccccn1)cn2-c1ccc(OCc2ccccc2)cc1` [Example 267, (2E)-3-{1-[4-(benzyloxy)phenyl]-3-(2-pyridin-2-ylethyl)-1H-indol-5-yl}-2-propenoic acid], with 110 nM.
Regarding `O=C(O)CCc1ccc2c(c1)c(CCc1ccccn1)cn2-c1ccc(OCc2ccccc2)cc1` [Example 268, 3-{1-[4-(benzyloxy)phenyl]-3-(2-pyridin-2-ylethyl)-1H-indol-5-yl}propanoic acid], the IC50 was 19 nM.
Take `O=C(O)CCc1ccc2c(c1)c(CCc1ccccn1)cn2-c1ccc(O)cc1` [Example 269, 3-[1-(4-hydroxyphenyl)-3-(2-pyridin-2-ylethyl)-1H-indol-5-yl]propanoic acid hydrochloride]: the IC50 is 77 nM.
On to `O=C(O)/C=C/c1ccc2c(c1)c(CCc1ccccn1)cn2-c1ccc(O)cc1` [Example 271, (2E)-3-[1-(4-hydroxyphenyl)-3-(2-pyridin-2-ylethyl)-1H-indol-5-yl]-2-propenoic acid], for which the IC50 was found to be 357 nM.
Then `O=C(O)CCc1ccc2c(c1)c(CCc1ccccn1)cn2-c1ccc(Oc2ccccc2)cc1` [Example 275, 3-[1-(4-phenoxyphenyl)-3-(2-pyridin-2-ylethyl)-1H-indol-5-yl]propanoic acid hydrochloride], with 12 nM.
Then `O=C(O)CCc1ccc2c(c1)c(CCc1ccccn1)cn2-c1ccc(OC(F)F)cc1` [Example 277, 3-{1-[4-(difluoromethoxy)phenyl]-3-(2-pyridin-2-ylethyl)-1H-indol-5-yl}propanoic acid hydrochloride], with 98 nM; and `O=C(O)CCc1ccc2c(c1)c(CCc1ccccn1)cn2-c1ccc(OCCO)cc1` [Example 279, 3-{1-[4-(2-hydroxyethoxy)phenyl]-3-(2-pyridin-2-ylethyl)-1H-indol-5-yl}propanoic acid hydrochloride], with 245 nM.
As for `O=C(O)CCc1ccc2c(c1)c(CCc1ccccn1)cn2-c1cccc(OCc2ccccc2)c1` [Example 281, 3-{1-[3-(benzyloxy)phenyl]-3-(2-pyridin-2-ylethyl)-1H-indol-5-yl}propanoic acid hydrochloride], the figure is 278 nM.
For the molecule `O=C(O)CCc1ccc2c(c1)c(CCc1ccccn1)cn2-c1cccc(O)c1` [Example 282, 3-[1-(3-hydroxyphenyl)-3-(2-pyridin-2-ylethyl)-1H-indol-5-yl]propanoic acid hydrochloride], the IC50 came out at 582 nM.
Then `O=C(CCc1ccc2c(c1)c(CCc1ccccc1)cn2-c1ccc(O)cc1)NO` [Example 284, N-hydroxy-3-[1-(4-hydroxyphenyl)-3-(2-phenylethyl)-1H-indol-5-yl]propanamide], with above 3000 nM; and `O=C(CCc1ccc2c(c1)c(CCc1ccccc1)cn2-c1ccc(OC(F)F)cc1)NO` [Example 286, 3-{1-[4-(difluoromethoxy)phenyl]-3-(2-phenylethyl)-1H-indol-5-yl}-N-hydroxypropanamide], with above 3000 nM.
As to `O=C(O)CCc1ccc2c(c1)c(CCc1ccccc1)cn2-c1cc(F)c(OCc2ccccc2)c(F)c1` [Example 288, 3-{1-[4-(benzyloxy)-3,5-difluorophenyl]-3-(2-phenylethyl)-1H-indol-5-yl}propanoic acid 2-amino-2-(hydroxymethyl)propane-1,3-diol salt (1:1)], the IC50 was found to be 264 nM.
Then `O=C(O)CCc1ccc2c(c1)c(CCc1ccccc1)cn2-c1cc(F)c(O)c(F)c1` [Example 289, 3-[1-(3,5-difluoro-4-hydroxyphenyl)-3-(2-phenylethyl)-1H-indol-5-yl]propanoic acid], with 182 nM.
With `O=C(O)CCc1ccc2c(c1)c(CCc1ccccc1)cn2-c1ccc(COc2ccc(F)cc2)cc1` [Example 291, 3-[1-{4-[(4-fluorophenoxy)methyl]phenyl}-3-(2-phenylethyl)-1H-indol-5-yl]propanoic acid 2-amino-2-(hydroxymethyl)propane-1,3-diol salt (1:1)], the IC50 worked out at 83 nM.
On to `O=C(O)CCc1ccc2c(c1)c(CCc1ccccc1)cn2-c1ccc(COC(F)F)cc1` [Example 293, 3-[1-{4-[(difluoromethoxy)methyl]phenyl}-3-(2-phenylethyl)-1H-indol-5-yl]propanoic acid], for which the IC50 worked out at 191 nM.
In the case of `CC(O)c1ccc(-n2cc(CCc3ccccc3)c3cc(CCC(=O)O)ccc32)cc1` (stereo not drawn) [Example 295, 3-{1-[4-(1-hydroxyethyl)phenyl]-3-(2-phenylethyl)-1H-indol-5-yl}propanoic acid 2-amino-2-(hydroxymethyl)propane-1,3-diol salt (1:1)], the IC50 was 755 nM.
Then `O=C(O)CCc1ccc2c(c1)c(CCc1ccccn1)cn2-c1cc(F)c(OCc2ccccc2)c(F)c1` [Example 297, 3-{1-[4-(benzyloxy)-3,5-difluorophenyl]-3-(2-pyridin-2-ylethyl)-1H-indol-5-yl}propanoic acid], with 442 nM.
As for `O=C(O)CCc1ccc2c(c1)c(CCc1ccccn1)cn2-c1cc(F)c(O)c(F)c1` [Example 298, 3-[1-(3,5-difluoro-4-hydroxyphenyl)-3-(2-pyridin-2-ylethyl)-1H-indol-5-yl]propanoic acid hydrochloride], the figure is 923 nM.
Then `O=C(O)CCc1ccc2c(c1)c(CCc1ccccn1)cn2-c1ccc(COc2ccc(F)cc2)cc1` [Example 300, 3-[1-{4-[(4-fluorophenoxy)methyl]phenyl}-3-(2-pyridin-2-ylethyl)-1H-indol-5-yl]propanoic acid hydrochloride], with 381 nM.
With `O=C(O)CCc1ccc2c(c1)c(CCc1ccccn1)cn2-c1ccc(COC(F)F)cc1` [Example 302, 3-[1-{4-[(difluoromethoxy)methyl]phenyl}-3-(2-pyridin-2-ylethyl)-1H-indol-5-yl]propanoic acid hydrochloride], the IC50 worked out at 764 nM.
Then `CC(O)c1ccc(-n2cc(CCc3ccccn3)c3cc(CCC(=O)O)ccc32)cc1` (stereo not drawn) [Example 304, 3-{1-[4-(1-hydroxyethyl)phenyl]-3-(2-pyridin-2-ylethyl)-1H-indol-5-yl}propanoic acid hydrochloride], with above 3000 nM; and `O=C(O)CCc1ccc2c(c1)c(CCc1ccccc1)cn2-c1ccc(CN2CCCC2)cc1` [Example 306, 3-{3-(2-phenylethyl)-1-[4-(pyrrolidin-1-ylmethyl)phenyl]-1H-indol-5-yl}propanoic acid], with 871 nM; and `O=C(O)CCc1ccc2c(c1)c(CCc1ccccc1)cn2-c1ccc(CN2CCOCC2)cc1` [Example 308, 3-{1-[4-(morpholin-4-ylmethyl)phenyl]-3-(2-phenylethyl)-1H-indol-5-yl}propanoic acid], with 149 nM.
